The IC50 is the concentration that gives 50% inhibition. Low values mean greater potency, high ones weaker potency. For orientation: EC50 means the concentration that produces a half-maximal response. By bioavailability is commonly meant dose-corrected exposure relative to a reference, in per cent. Read a low bioavailability as little systemic uptake. Usually Cmax stands for the highest concentration seen after dosing. One may read the Tmax as the time at which the peak concentration occurs.

Values joined by “and” are separate entries in the source; they are usually repeats but may differ in a detail not shown here. Identical values can stand only once. Where only a bound is given, the exact number is not on record here.

The target in series [1] is T1, Melanocortin receptor 4 (Homo sapiens, UniProt P32245). The series is described as follows: In vitro inhibitory concentration required against melanocortin 4 receptor using [125I]NDP-MSH as radioligand.
Series [2] deals with T1, Melanocortin receptor 4. The experiment in a line: Effective concentration determined against melanocortin-4 receptor. The series is classed as functional.
A further series addresses Melanocortin receptor 3 (Homo sapiens, UniProt P41968). The series is described as follows: Effective concentration determined against melanocortin-3 receptor. It counts as functional.
The target in the next series is Melanocortin receptor 5 (Homo sapiens, UniProt P33032). The experiment in a line: Effective concentration determined against melanocortin-5 receptor. The series is classed as functional.
The target of series [3] is Melanocortin receptor (M4 and M5) (Homo sapiens) (UniProt P32245+P33032). The experiment in a line: Selectivity for melanocortin 4 receptor compared to melanocortin 5 receptor in vitro. The series is classed as functional.
The nature of series [4]: Clearance value of compound was determined in mice. It counts as ADME, organism-based. The conditions noted are these: mouse, in vivo.
Series [5] is described as follows: Bioavailability concentration of compound was determined in mice. The series is classed as ADME, organism-based. The conditions noted are these: mouse, in vivo.
Series [6] is described as follows: Half life of compound was determined in mice. The conditions noted are these: mouse, in vivo. It counts as ADME.
The nature of series [7]: Volume of distribution of compound was determined in mice. The conditions noted are these: mouse, in vivo. The series is classed as ADME, organism-based.
The nature of series [8]: Maximum plasma level concentration was determined in mice. The series is classed as ADME, organism-based. The conditions noted are these: mouse.
The nature of series [9]: Tmax of compound was determined in mice. The series is classed as ADME. The conditions noted are these: mouse, in vivo.
Series [10] in a line: Brain concentration of compound was determined in mice. It counts as ADME. The conditions noted are these: mouse, in vivo.

Chain of Melanocortin receptor 3 (P41968 whole entry): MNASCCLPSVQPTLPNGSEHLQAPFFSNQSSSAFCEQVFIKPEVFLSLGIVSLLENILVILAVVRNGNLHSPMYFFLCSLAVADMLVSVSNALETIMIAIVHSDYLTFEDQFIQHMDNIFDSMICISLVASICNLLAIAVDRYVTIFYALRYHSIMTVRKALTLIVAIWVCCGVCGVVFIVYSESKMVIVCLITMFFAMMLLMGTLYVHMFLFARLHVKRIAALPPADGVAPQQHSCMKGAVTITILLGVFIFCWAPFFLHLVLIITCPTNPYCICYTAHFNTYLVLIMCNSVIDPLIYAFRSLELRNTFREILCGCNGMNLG
Chain of Melanocortin receptor 5 (P33032 whole entry): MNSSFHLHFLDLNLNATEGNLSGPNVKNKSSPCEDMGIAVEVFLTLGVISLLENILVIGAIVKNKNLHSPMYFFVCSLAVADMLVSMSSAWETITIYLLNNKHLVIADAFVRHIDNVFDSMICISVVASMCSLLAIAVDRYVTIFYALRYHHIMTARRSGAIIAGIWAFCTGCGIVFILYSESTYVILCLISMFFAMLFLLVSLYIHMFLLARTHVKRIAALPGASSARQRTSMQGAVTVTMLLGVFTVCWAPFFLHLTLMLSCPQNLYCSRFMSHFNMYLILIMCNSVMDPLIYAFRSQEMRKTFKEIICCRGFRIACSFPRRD
Chain of Melanocortin receptor (M4 and M5) (Homo sapiens) (P32245 whole entry, looked up): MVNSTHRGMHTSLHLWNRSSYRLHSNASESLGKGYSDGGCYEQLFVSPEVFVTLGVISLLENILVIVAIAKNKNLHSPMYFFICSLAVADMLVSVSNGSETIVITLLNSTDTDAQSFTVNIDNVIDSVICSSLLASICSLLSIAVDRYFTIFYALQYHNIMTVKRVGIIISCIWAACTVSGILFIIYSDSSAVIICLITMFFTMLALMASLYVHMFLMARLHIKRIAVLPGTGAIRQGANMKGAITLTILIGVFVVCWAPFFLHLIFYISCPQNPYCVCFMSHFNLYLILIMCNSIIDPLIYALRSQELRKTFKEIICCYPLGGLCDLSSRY
Chain of Melanocortin receptor (M4 and M5) (Homo sapiens) (P33032 whole entry, looked up): as the sequence (P33032 whole entry) above
T1 sequence (P32245 whole entry): as the sequence (P32245 whole entry, looked up) above

Compound `CS(=O)(=O)N(CC1CC1)c1ccccc1N1CCN(C(=O)[C@@H](Cc2ccc(Cl)cc2)NC(=O)c2cnc3ccccc3c2)CC1` showed a concentration for half-maximal inhibition (IC50) at Melanocortin receptor 4 [1] of 94 nM. For the same compound, at Melanocortin receptor 4 [2], a half-maximal effect (EC50) was put at 60 nM.
The corresponding values for `CN1CCC(C(=O)N[C@H](Cc2ccc(Cl)cc2)C(=O)N2CCN(c3ccccc3N(CC3CC3)S(C)(=O)=O)CC2)CC1` are 120 nM and 12 nM.
The corresponding values for `O=C(N[C@H](Cc1ccc(Cl)cc1)C(=O)N1CCN(c2ccccc2NS(=O)(=O)Cc2ccccc2)CC1)[C@@H]1Cc2ccccc2CN1` are 720 nM and 65 nM.
On Melanocortin receptor 4 [1], `CC(C)CCN1CC(C(=O)N[C@H](Cc2ccc(Cl)cc2)C(=O)N2CCN(c3ccccc3N(CC3CC3)S(C)(=O)=O)CC2)C1` yielded an IC50 of 83 nM. Further, the EC50 at Melanocortin receptor 4 [2] was 49 nM.
The corresponding values for `O=C(N[C@H](Cc1ccc(Cl)cc1)C(=O)N1CCN(c2ccccc2NS(=O)(=O)c2ccccc2)CC1)[C@@H]1Cc2ccccc2CN1` are 730 nM and 120 nM.
Turning to `CS(=O)(=O)Nc1ccccc1N1CCN(C(=O)[C@@H](Cc2ccc(Cl)cc2)NC(=O)[C@@H]2Cc3ccccc3CN2)CC1`, at Melanocortin receptor 4 [1], the 50% inhibitory concentration (IC50) is 340 nM. The EC50 was 11 nM on Melanocortin receptor 4 [2], over 10 µM at Melanocortin receptor 3 and 230 nM at Melanocortin receptor 5. Also, in series [3], the Selectivity came to 21.
Turning to `CCN1CCC(C(=O)N[C@H](Cc2ccc(Cl)cc2)C(=O)N2CCN(c3ccccc3N(CC3CC3)S(C)(=O)=O)CC2)CC1`, on Melanocortin receptor 4 [1], the 50% inhibitory concentration (IC50) is 110 nM. Besides, the midpoint of the response on Melanocortin receptor 4 [2], the EC50, lay at 8.6 nM.
With `CS(=O)(=O)N(CC1CC1)c1ccccc1N1CCN(C(=O)[C@@H](Cc2ccc(Cl)cc2)NC(=O)c2ccc3ccccc3c2)CC1`, on Melanocortin receptor 4 [1], the half-maximal inhibitory concentration (IC50) was determined as 280 nM. In addition, at Melanocortin receptor 4 [2], the EC50 is 63 nM.
The corresponding values for `CS(=O)(=O)N(CC1CC1)c1ccccc1N1CCN(C(=O)[C@@H](Cc2ccc(Cl)cc2)NC(=O)c2ccc3ncccc3c2)CC1` are 29 nM and 27 nM.
Compound `CS(=O)(=O)N(CCN)c1ccccc1N1CCN(C(=O)[C@@H](Cc2ccc(Cl)cc2)NC(=O)[C@@H]2Cc3ccccc3CN2)CC1` returned an IC50 on Melanocortin receptor 4 [1] of 35 nM. The EC50 at Melanocortin receptor 4 [2] was under 0.1 nM; at Melanocortin receptor 3 it was over 10 µM; on Melanocortin receptor 5 it was 79 nM. In [3], this compound yielded a Selectivity of 79.
The compound `CS(=O)(=O)N(CC1CC1)c1ccccc1N1CCN(C(=O)[C@@H](Cc2ccc(Cl)cc2)NC(=O)[C@@H]2Cc3ccccc3CN2)CC1` displayed an IC50 at Melanocortin receptor 4 [1] of 61 nM. Besides, the EC50 on Melanocortin receptor 4 [2] was 0.58 nM and 0.6 nM; at Melanocortin receptor 3 it was 7 µM; on Melanocortin receptor 5, 170 nM. Moreover, the Selectivity in [3] turned out to be 170.
On Melanocortin receptor 4 [1], `CS(=O)(=O)N(CC1CC1)c1ccccc1N1CCN(C(=O)[C@@H](Cc2ccc(Cl)cc2)NC(=O)c2cc3ccccc3cn2)CC1` returned a half-maximal inhibitory concentration (IC50) of 410 nM. The compound further had an EC50 at Melanocortin receptor 4 [2] of 18 nM.
In the same order, the values of `CS(=O)(=O)N(CC1CC1)c1ccccc1N1CCN(C(=O)[C@@H](Cc2ccc(Cl)cc2)NC(=O)C2CN(C3CCCCC3)C2)CC1` are 67 nM and 1.8 nM.
In the same order, the values of `CN(c1ccccc1N1CCN(C(=O)[C@@H](Cc2ccc(Cl)cc2)NC(=O)[C@@H]2Cc3ccccc3CN2)CC1)S(C)(=O)=O` are 210 nM and 4 nM.
On to `CCCN(c1ccccc1N1CCN(C(=O)[C@@H](Cc2ccc(Cl)cc2)NC(=O)[C@@H]2Cc3ccccc3CN2)CC1)S(C)(=O)=O`, for which the EC50 was 0.44 nM at Melanocortin receptor 4 [2], over 10 µM at Melanocortin receptor 3 and 210 nM on Melanocortin receptor 5. The same compound yielded a Cl/F in series [4] of 30 mL/min/kg. In series [5], this compound showed a bioavailability of 20%. Moreover, the T1/2 in series [6] is 26.4 min. Moreover, in [7], the V2/F is 19 L/kg. For the same compound, the maximum concentration (Cmax) in series [8] was found to be 1400 ng/mL. The Tmax in [9] worked out at 15 min. The compound also registered a Cbrain in [10] of 130 ng/g.

The values above are taken from ChEMBL document CHEMBL1142040, “Melanocortin subtype-4 receptor agonists containing a piperazine core with substituted aryl sulfonamides” (Bioorg Med Chem Lett, 2005).
